Assay results published in ChEMBL document CHEMBL1145262, “Aryl sulfones: a new class of gamma-secretase inhibitors” (Bioorg Med Chem Lett, 2005).

Molecular target: Gamma-secretase
Experiment: In vitro inhibition of gamma-secretase as amyloid peptide production in SH-SY5Y cells
Type: functional, cell-based, Homo sapiens

SMILES	IC50
O=S(=O)(c1ccc(Cl)cc1)C1(c2ccccc2)CCCCC1	461 nM
O=S(=O)(c1ccc(Cl)cc1)C1(c2ccccc2F)CCCCC1	55 nM
CC(C)N(c1cc(F)ccc1F)S(=O)(=O)c1ccc(Cl)cc1	170 nM
C[C@H](CO)N(c1cc(F)ccc1F)S(=O)(=O)c1ccc(Cl)cc1	27 nM
CC(C)C(c1cc(F)ccc1F)S(=O)(=O)c1ccc(Cl)cc1 (centres undefined)	70 nM
CC(CCO)C(c1cc(F)ccc1F)S(=O)(=O)c1ccc(Cl)cc1 (centres undefined)	35 nM
COC(=O)C(C)C(c1cc(F)ccc1F)S(=O)(=O)c1ccc(Cl)cc1 (centres undefined)	253 nM
O=S(=O)(Nc1cc(F)ccc1F)c1ccc(Cl)cc1	> 10000 nM
CC(CO)C(c1cc(F)ccc1F)S(=O)(=O)c1ccc(Cl)cc1 (centres undefined)	304 nM
O=S(=O)(Cc1cc(F)ccc1F)c1ccc(Cl)cc1	4410 nM
CC(c1cc(F)ccc1F)S(=O)(=O)c1ccc(Cl)cc1 (centres undefined)	2470 nM
O=S(=O)(c1ccc(Cl)cc1)C1(c2cccc(F)c2)CCCCC1	249 nM
O=S(=O)(c1ccccc1)C1(c2cc(F)ccc2F)CCCCC1	98 nM
CN(c1cc(F)ccc1F)S(=O)(=O)c1ccc(Cl)cc1	1900 nM
COC(=O)C1CC(c2cc(F)ccc2F)(S(=O)(=O)c2ccc(Cl)cc2)CCC1=O (centres undefined)	104 nM
O=C1CCC(c2cc(F)ccc2F)(S(=O)(=O)c2ccc(Cl)cc2)CC1	22 nM
O=S(=O)(c1ccc(Cl)cc1)C1(c2cc(F)ccc2F)CCCCC1	3 nM
O=S(=O)(c1ccc(Cl)cc1)C1(c2cc(F)ccc2F)CC2CCC(C2)C1 (stereo in doubt; 19)	12 nM
O=S(=O)(c1ccc(Cl)cc1)C1(c2cc(F)ccc2F)CC2CCC(C2)C1 (stereo in doubt; 20)	94 nM
